Assay results: patent US20230172204A1 (BASF SE, priority 2020, published 2023)

How the values were obtained:
[1] = tested on: Phakopsora pachyrhizi (F129L); assay: Protective control of soybean rust on soybeans (PHAKPA P2); format: in vivo; details: for % PHAKPA (F129L) Disease level P2 at 4 ppm: protective P2, 4 ppm; for % PHAKPA (F129L) Disease level P2 at 4 ppm / % PHAKPA (F129L) Disease level P2 at 16 ppm: soybean rust F129L; for % PHAKPA (F129L) Disease level P2 at 16 ppm: protective P2, 16 ppm
[2] = tested on: Phakopsora pachyrhizi (F129L); assay: Protective control of soybean rust on soybeans (PHAKPA P6); format: in vivo; details: for % PHAKPA (F129L) Disease level P6 at 4 ppm: protective P6, 4 ppm; for % PHAKPA (F129L) Disease level P6 at 4 ppm / % PHAKPA (F129L) Disease level P6 at 16 ppm: soybean rust F129L; for % PHAKPA (F129L) Disease level P6 at 16 ppm: protective P6, 16 ppm
[3] = P2 protective, % diseased leaf area
[4] = P6 protective, % diseased leaf area

| SMILES | % PHAKPA (F129L) Disease level P2 at 4 ppm [1] | % PHAKPA (F129L) Disease level P2 at 16 ppm [1] | % PHAKPA (F129L) Disease level P6 at 4 ppm [2] | % PHAKPA (F129L) Disease level P6 at 16 ppm [2] | PHAKPA (F129L) Disease level (%) P2 at 16 ppm [1, 3] | PHAKPA (F129L) Disease level (%) P6 at 16 ppm [2, 4] | PHAKPA (F129L) Disease level (%) P2 at 4 ppm ([1]; P2 protective, 4 ppm, % diseased leaf area) | PHAKPA (F129L) Disease level (%) P6 at 4 ppm ([2]; P6 protective, 4 ppm, % diseased leaf area) |
| --- | --- | --- | --- | --- | --- | --- | --- | --- |
| CNC(=O)/C(=N/OC)c1cccc(C)c1CO/N=C(\C)c1c(F)ccc(C(F)(F)F)c1NC [compound 233] | 100% | 57% | 87% | 27% | – | – | – | – |
| CO/N=C(/C(=O)OC)c1cccc(C)c1CO/N=C(\C)c1cccc(F)c1 [Ex. 86] | 12% | 3% | 23% | 3% | 6% | 7% | – | – |
| CNC(=O)/C(=N/OC)c1cccc(C)c1CO/N=C(\C)c1cccc(C(C)(F)F)c1 [compound 303] | 2% | 0% | 12% | 0% | – | – | – | – |
| CO/N=C(/C(=O)OC)c1cccc(C)c1CO/N=C(\C)c1cc(C)cc(C(F)(F)F)c1 [compound 65] | 93% | 77% | 100% | 87% | – | – | – | – |
| CNC(=O)/C(=N/OC)c1cccc(C)c1CO/N=C(\C)c1cc(C(F)(F)F)ccc1Cl [compound 190] | 20% | 0% | 45% | 3% | – | – | – | – |
| CO/N=C(/C(=O)OC)c1cccc(C)c1CO/N=C(\CC(F)(F)F)c1cccc(C(F)(F)F)c1 [compound 250] | 90% | 90% | 90% | 80% | – | – | – | – |
| CNC(=O)/C(=N/OC)c1ccccc1CO/N=C(\C)c1cccc(Br)c1 [reference compound] | – | – | – | – | – | – | 27% | 70% |
| CNC(=O)/C(=N/OC)c1cccc(C)c1CO/N=C(\C)c1ccccc1C(F)F [compound 298] | 63% | 7% | 97% | 37% | – | – | – | – |
| CO/N=C(/C(=O)OC)c1cccc(C)c1CO/N=C(\C)c1ccccc1 [Ex. 30] | 53% | 1% | 77% | 2% | 2% | 1% | – | – |
| CNC(=O)/C(=N/OC)c1cccc(C)c1CO/N=C(\C)c1ccccc1C [compound 127] | 90% | 44% | 93% | 62% | – | – | – | – |
| CNC(=O)/C(=N/OC)c1cccc(C)c1CO/N=C(\C)c1cc(-c2ccccc2)cc(C(F)(F)F)c1 [compound 149] | 83% | 45% | 87% | 31% | – | – | – | – |
| CO/N=C(/C(=O)OC)c1cccc(C)c1CO/N=C(\C)c1ccccc1C(F)(F)F [Ex. 36] | 100% | 42% | 100% | 43% | 47% | 57% | – | – |
| C#Cc1ccccc1/C(C)=N/OCc1c(C)cccc1/C(=N\OC)C(=O)OC [compound 122] | 100% | 73% | 93% | 90% | – | – | – | – |
| CO/N=C(/C(=O)OC)c1cccc(C)c1CO/N=C(\C)c1ccc(Br)cc1 [compound 114] | 38% | 5% | 52% | 15% | – | – | – | – |
| CC/C(=N\OCc1c(C)cccc1/C(=N\OC)C(=O)NC)c1ccccc1C(F)(F)F [compound 189] | 82% | 28% | 97% | 37% | – | – | – | – |
| CO/N=C(/C(=O)OC)c1cccc(C)c1CO/N=C(\C)c1ccc(F)c(F)c1 [compound 129] | 28% | 1% | 24% | 2% | – | – | – | – |
| CO/N=C(/C(=O)OC)c1cccc(C)c1CO/N=C(/c1cccc(C(F)(F)F)c1)C(C)C [compound 206] | 100% | 67% | 100% | 90% | – | – | – | – |
| CNC(=O)/C(=N/OC)c1cccc(C2CC2)c1CO/N=C(\C)c1cccc(C(F)(F)F)c1 [Ex. 11] | 23% | 1% | 20% | 0% | – | – | – | – |
| CNC(=O)/C(=N/OC)c1cccc(C)c1CO/N=C(\C)c1ccc(C#N)cc1 [Ex. 159] | 28% | 2% | 28% | 1% | 0% | 0% | – | – |
| CO/N=C(/C(=O)OC)c1cccc(C)c1CO/N=C(\C)c1ccc(Cl)cc1C(F)(F)F [compound 304] | 53% | 28% | 100% | 37% | – | – | – | – |
| CO/N=C(/C)c1ccccc1/C(C)=N/OCc1c(C)cccc1/C(=N\OC)C(=O)OC [compound 187] | 100% | 100% | 90% | 90% | – | – | – | – |
| CNC(=O)/C(=N/OC)c1cccc(C)c1CO/N=C(\C)c1c(F)ccc(F)c1C(F)(F)F [compound 359] | 100% | 37% | 100% | 43% | – | – | – | – |
| COC=C(C(=O)OC)c1cccc(C)c1CON=C(C)c1ccccc1OC(F)(F)F [compound 462] | 37% | 6% | 55% | 10% | – | – | – | – |
| CNC(=O)/C(=N/OC)c1cccc(C)c1CO/N=C(\C)c1ccc(C(F)(F)F)cc1 [compound 39] | 30% | 4% | 15% | 2% | – | – | – | – |
| CNC(=O)/C(=N/OC)c1cccc(C)c1CO/N=C(\C)c1ccc(F)c(F)c1OC(F)(F)F [compound 451] | 1% | 0% | 2% | 0% | – | – | – | – |
| CNC(=O)/C(=N/OC)c1cccc(C)c1CO/N=C(\C)c1cccc(C(C)(C)C)c1 [compound 100] | 18% | 0% | 25% | 4% | – | – | – | – |
